# Measured values as given in patent publication US6251899A, “Methoximinomethyloxadiazines” (Bayer Aktiengesellschaft, priority 1997, dated 2001).
# Like-named read-outs stand apart in the source and are kept apart here.
# Tests used:
# Plasmopara viticola = assay: Plasmopara test (grapevine)/protective; conditions: 144 h
# [1] = logP by HPLC (EEC Directive 79/831 Annex V. A8, gradient method, acetonitrile/0.1% aqueous phosphoric acid); type: physicochemical
# Protocol: *The logP values were determined in accordance with EEC Directive 79/831
# Annex V. A8 by HPLC (gradient method, acetonitrile/0.1% aqueous phosphoric
# Venturia inaequalis = assay: Venturia test (apple)/protective; conditions: 288 h
# [2] = read-out: Efficacy, grapevine, protective, 100 g/ha, 6 days after inoculation
# [3] = read-out: Efficacy, apple, protective, 10 g/ha, 12 days after inoculation
Compound,chromatographic logP [1],pest or weed control at 100 g/ha (Plasmopara viticola; [2]) [%],pest or weed control at 10 g/ha (Venturia inaequalis; [3]) [%],further results
CON=C(C1=NOCCN1)c1ccccc1Oc1ncnc(Oc2ccccc2Cl)c1F [Example 3],3.02,≥ 90,≥ 90,pest or weed control at 10 g/ha (Venturia inaequalis; read-out: Efficacy): 92%
CON=C(C1=NOCCN1)c1ccccc1Oc1ncnc(Oc2cccc(C)c2C)c1F [Example 4],3.29,≥ 90,≥ 90,pest or weed control at 10 g/ha (Venturia inaequalis; read-out: Efficacy): 95%
CON=C(C1=NOCCN1)c1ccccc1Oc1ncnc(Oc2cccc(Cl)c2)c1F [Example 5],3.23,≥ 90,≥ 90,pest or weed control at 100 g/ha (Plasmopara viticola; read-out: Efficacy): 97%; pest or weed control at 10 g/ha (Venturia inaequalis; read-out: Efficacy): 99%
CON=C(C1=NOCCN1)c1ccccc1Oc1ncnc(Oc2ccc(Cl)cc2)c1F [Example 6],3.23,≥ 90,–,pest or weed control at 100 g/ha (Plasmopara viticola; read-out: Efficacy): 97%
C=Cc1ccccc1Oc1ncnc(Oc2ccccc2C(=NOC)C2=NOCCN2)c1F [Example 7],3.38,≥ 90,≥ 90,–
CCc1ccccc1Oc1ncnc(Oc2ccccc2C(=NOC)C2=NOCCN2)c1F [Example 11],3.32,≥ 90,≥ 90,–
CON=C(C1=NOCCN1)c1ccccc1Oc1ncnc(Oc2cccc(C(C)(C)C)c2)c1F [Example 12],3.96,–,≥ 90,–
CON=C(C1=NOCCN1)c1ccccc1Oc1ncnc(Oc2ccccc2C(C)C)c1F [Example 13],3.59,≥ 90,≥ 90,–
CON=C(C1=NOCCN1)c1ccccc1Oc1ncnc(Oc2ccccc2OC)c1F [Example 14],2.7,≥ 90,–,–
CON=C(C1=NOCCN1)c1ccccc1Oc1ncnc(Oc2ccccc2C2CCCC2)c1F [Example 17],4.01,≥ 90,≥ 90,–
CON=C(C1=NOCCN1)c1ccccc1Oc1ncnc(Oc2ccccc2C(C)(C)C)c1F [Example 22],3.84,–,≥ 90,–
CON=C(C1=NOCCN1)c1ccccc1Oc1ncnc(Oc2cccc(C(F)(F)F)c2)c1F [Example 24],3.39,–,≥ 90,–
CON=C(C1=NOCCN1)c1ccccc1Oc1ncnc(Oc2ccc(OC(F)(F)F)cc2)c1F [Example 25],3.54,–,–,–
CON=C(C1=NOCCN1)c1ccccc1Oc1ncnc(Oc2ccc(C(F)(F)F)cc2Cl)c1F [Example 26],3.76,–,–,–
CON=C(C1=NOCCN1)c1ccccc1Oc1ncnc(Oc2ccc(OC(F)(F)F)cc2Cl)c1F [Example 27],3.86,–,–,–
CON=C(C1=NOCCN1)c1ccccc1Oc1ncnc(Oc2ccc(OC(F)(F)F)cc2C)c1F [Example 30],3.8,–,–,–
CON=C(C1=NOCCN1)c1ccccc1Oc1ncnc(Oc2cccc3c2OC(C)(C)C3)c1F [Example 31],3.3,–,≥ 90,–
CON=C(C1=NOCCN1)c1ccccc1Oc1ncnc(Oc2ccc(SC(F)(F)F)cc2)c1F [Example 32],3.84,–,–,–
CON=C(C1=NOCCN1)c1ccccc1Oc1ncnc(Oc2ccc(OC(F)(F)C(F)Cl)cc2)c1F (stereo not shown) [Example 33],3.56,–,–,–
CON=C(C)c1ccc(Oc2ncnc(Oc3ccccc3C(=NOC)C3=NOCCN3)c2F)c(C)c1 [Example 42],3.56,–,–,–
CON=C(C1=NOCCN1)c1ccccc1Oc1ncnc(Sc2ccccc2)c1F [Example 48],–,≥ 90,≥ 90,–
CON=C(C1=NOCCN1)c1ccccc1Oc1ncnc(Sc2ccc(Cl)c(C(F)(F)F)c2Cl)c1F [Example 55],4.3,–,–,–
CCSCc1ccccc1Oc1ncnc(Oc2ccccc2C(=NOC)C2=NOCCN2)c1F [Example 60],3.4,–,–,–
COCc1ccccc1Oc1ncnc(Oc2ccccc2C(=NOC)C2=NOCCN2)c1F [Example 61],2.74,–,–,–
CCOCc1ccccc1Oc1ncnc(Oc2ccccc2C(=NOC)C2=NOCCN2)c1F [Example 62],3.04,–,–,–
CCSc1ccccc1Oc1ncnc(Oc2ccccc2C(=NOC)C2=NOCCN2)c1F [Example 64],3.26,–,–,–
"CON=C1C(=NOCCOS(C)(=O)=O)Oc2ccccc21 [VI-1, benzofuran-2,3-dione 2-[O-(2-methylsulphonyloxy-ethyl)-oxime]3-(O-methyl-oxime)]",2.39,–,–,–
"CON=C1C(=NOCCO)Oc2ccccc21 [benzofuran-2,3-dione 2-[O-(2-hydroxy-ethyl)-oxime] 3-(O-methyl-oxime)]",1.65,–,–,logP [1]: 1.79

# The next lines start with results.
chromatographic logP [1],Compound,pest or weed control at 100 g/ha (Plasmopara viticola; [2]) [%],pest or weed control at 10 g/ha (Venturia inaequalis; [3]) [%],further results
3.45,"CON=C(C1=NOCCN1)c1ccccc1Oc1ncnc(Oc2cccc(Cl)c2Cl)c1F [Example 1, 3-{1-[2-(4-<2,3-dichlorophenoxy>-5-fluoropyrimid-6-yloxy)-phenyl]-1-(methoximino)-methyl}-5,6-dihydro-4H-1,2,4-oxadiazine]",≥ 90,–,–
3.52,CON=C(C1=NOCCN1)c1ccccc1Oc1ncnc(Oc2cccc(Cl)c2C)c1F [Example 2],≥ 90,≥ 90,–
3.01,CON=C(C1=NOCCN1)c1ccccc1Oc1ncnc(Oc2ccccc2C)c1F [Example 8],–,–,–
3.08,CON=C(C1=NOCCN1)c1ccccc1Oc1ncnc(Oc2ccccc2Br)c1F [Example 9],≥ 90,–,–
2.85,CON=C(C1=NOCCN1)c1ccccc1Oc1ncnc(Oc2ccccc2F)c1F [Example 10],≥ 90,≥ 90,–
3.38,CON=C(C1=NOCCN1)c1ccccc1Oc1ncnc(Oc2ccc(C)cc2C)c1F [Example 15],≥ 90,–,–
3.35,CON=C(C1=NOCCN1)c1ccccc1Oc1ncnc(Oc2cc(C)ccc2C)c1F [Example 16],–,–,–
3.35,CON=C(C1=NOCCN1)c1ccccc1Oc1ncnc(Oc2cc(C)ccc2Cl)c1F [Example 18],–,–,–
3.29,CON=C(C1=NOCCN1)c1ccccc1Oc1ncnc(Oc2c(C)cccc2C)c1F [Example 19],≥ 90,–,–
3.1,CON=C(C1=NOCCN1)c1ccccc1Oc1ncnc(Oc2cccc(C)c2)c1F [Example 20],≥ 90,≥ 90,–
3.08,CON=C(C1=NOCCN1)c1ccccc1Oc1ncnc(Oc2ccc(C)cc2)c1F [Example 21],–,≥ 90,–
2.8,CON=C(C1=NOCCN1)c1ccccc1Oc1ncnc(Oc2cccc(OC)c2)c1F [Example 23],–,≥ 90,–
2.56,CON=C(C1=NOCCN1)c1ccccc1Oc1ncnc(Oc2ccccc2C#N)c1F [Example 29],–,–,–
2.76,CON=C(C1=NOCCN1)c1ccccc1Oc1ncnc(Oc2ccccc2)c1F [Example 34],≥ 90,–,–
1.58,CON=C(C1=NOCCN1)c1ccccc1Oc1ncnc(Oc2ccc(C)nc2)c1F [Example 35],–,–,–
2.43,CON=C(C1=NOCCN1)c1ccccc1Oc1ncnc(Oc2cccnc2Br)c1F [Example 36],–,≥ 90,–

chromatographic logP [1],Compound,pest or weed control at 100 g/ha (Plasmopara viticola; [2]) [%],pest or weed control at 10 g/ha (Venturia inaequalis; [3]) [%],further results
1.73,CON=C(C1=NOCCN1)c1ccccc1Oc1ncnc(Oc2cccnc2)c1F [Example 37],–,–,–
2.62,CON=C(C1=NOCCN1)c1ccccc1Oc1ncnc(Oc2cccc(Cl)n2)c1F [Example 40],–,≥ 90,–
2.65,CON=C(C1=NOCCN1)c1ccccc1Oc1ncnc(Oc2ccc(Cl)cn2)c1F [Example 41],–,–,–
2.8,CON=C(C1=NOCCN1)c1ccccc1Oc1ncnc(OCc2ccccc2Cl)c1F [Example 45],–,–,–
3.44,CON=C(C1=NOCCN1)c1ccccc1Oc1ncnc(OCc2cccc(Cl)c2)c1F [Example 46],–,–,–
3.69,CON=C(C1=NOCCN1)c1ccccc1Oc1ncnc(Sc2ccc(Br)cc2)c1F [Example 49],–,–,–
3.57,CON=C(C1=NOCCN1)c1ccccc1Oc1ncnc(Sc2ccc(Cl)cc2)c1F [Example 50],≥ 90,–,–
3.45,CON=C(C1=NOCCN1)c1ccccc1Oc1ncnc(Sc2ccc(C)cc2)c1F [Example 51],≥ 90,–,–
3.66,CON=C(C1=NOCCN1)c1ccccc1Oc1ncnc(Sc2cccc(Br)c2)c1F [Example 52],–,–,–
3.56,CON=C(C1=NOCCN1)c1ccccc1Oc1ncnc(Sc2cccc(Cl)c2)c1F [Example 53],≥ 90,–,–
4.01,CON=C(C1=NOCCN1)c1ccccc1Oc1ncnc(SC2CCCCC2)c1F [Example 57],–,–,–
3.42,CON=C(C1=NOCCN1)c1ccccc1Oc1ncnc(SCc2ccccc2)c1F [Example 58],–,–,–
3.34,CON=C(C1=NOCCN1)c1ccccc1Oc1ncnc(Oc2cccc(C)c2Cl)c1F [Example 59],≥ 90,≥ 90,–
2.95,CON=C(C1=NOCCN1)c1ccccc1Oc1ncnc(Oc2ccccc2SC)c1F [Example 63],–,–,–
1.97,"CON=C(C1=NOCCN1)c1ccccc1Oc1ncnc(F)c1F [IV-1, 3-{1-[2-(4,5-difluoropyrimid-6-yloxy)-phenyl]-1-(methoximino)-methyl}-5,6-dihydro-4H-1,2,4-oxadiazine]",–,–,–
